Assay results taken from patent US9102648B1, “Bioavailable diacylhydrazine ligands for modulating the expression of exogenous genes via an ecdysone receptor complex” (Intrexon Corporation, priority 2003, dated 2015).

Legend:
[1] = target: GAL4 DBD (1-147)-CfEcR(DEF)/VP16AD-βRXREF-LmUSPEF (Choristoneura fumiferana, UniProt O77240); assay: cell-based; conditions: for Fold Induction, 27-63 Assay, 3.3 uM: 3.3 uM ligand; for Fold Induction, 27-63 Assay, 3.3 uM / Fold Induction, 27-63 Assay, 33 uM: RLU ligand treated / RLU DMSO treated cells; for Fold Induction, 27-63 Assay, 3.3 uM / Fold Induction, 27-63 Assay, 33 uM / EC50: average of two wells; for Fold Induction, 27-63 Assay, 33 uM: 33 uM ligand; for 27-63 assay Rel Max FI: maximum fold induction at any concentration relative to that of GS-E ligand, CHO 27-63 cells; for EC50: read-out: 27-63 assay EC50, CHO 27-63 stable cell line, luciferase reporter
[2] = target: GAL4 DBD-CfEcR(DEF)/VP16AD-MmRXRE (Choristoneura fumiferana, UniProt O77240); assay: 13B3 Assay (CHO stable cell line, luciferase reporter); conditions: for Fold Induction, 13B3 Assay, 3.3 uM: 3.3 uM ligand; for Fold Induction, 13B3 Assay, 3.3 uM / Fold Induction, 13B3 Assay, 33 uM: RLU ligand treated / RLU DMSO treated cells; for Fold Induction, 13B3 Assay, 3.3 uM / Fold Induction, 13B3 Assay, 33 uM / EC50: average of two wells; for Fold Induction, 13B3 Assay, 33 uM: 33 uM ligand; for 13B3 assay Rel Max FI: maximum fold induction at any concentration relative to that of GS-E ligand, CHO 13B3 cells; for EC50: read-out: 13B3 EC50, CHO 13B3 stable cell line, luciferase reporter, 48 h
Outline: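 CHO 13B3 clone stably expressing GAL4 DBD–CfEcR(DEF) and VP16AD–MmRXR(DE) with GAL4 RE–luciferase reporter; cells plated 24 h at 37 °C, then treated with ligands (DMSO stocks diluted 300-fold), 8 concentrations 33–0.01 μM.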

SMILES	Fold Induction, 27-63 Assay, 3.3 uM [1]	Fold Induction, 27-63 Assay, 33 uM [1]	27-63 assay Rel Max FI [1]	EC50 [1] [µM]	Fold Induction, 13B3 Assay, 3.3 uM [2]	Fold Induction, 13B3 Assay, 33 uM [2]	13B3 assay Rel Max FI [2]	EC50 [2] [µM]
COc1cc(Cl)ccc1C(=O)N(NC(=O)c1cccc(OC)c1C)C(C)(C)C [RG-100848]	1181	1151	0.765	0.322	3391	578	0.666	1.65
CCc1ccc(C(=O)NN(C(=O)c2cc(C)c(C)c(Cl)c2)C(C)(C)C)cc1 [RG-101863]	1705	636	1.043	1	3187	207	0.837	0.728
CCc1c(C(=O)NN(C(=O)c2cc(C)cc(C)c2)C(C)(C)C)ccc2c1OC(C)O2 (stereo not shown) [RG-101659]	2283	1896	1.009	0.347	1556	1185	0.867	0.562
Cc1cc(C)cc(C(=O)N(NC(=O)c2cc3c(cc2C)OCO3)C(C)(C)C)c1 [RG-101088]	6	1743	1.159	9.95	–	1400	–	–
Cc1cc(C)cc(C(=O)N(NC(=O)c2cc3c(cc2Cl)OCO3)C(C)(C)C)c1 [RG-101171]	395	1357	0.877	4.02	–	8453	–	–
COc1cccc(C(=O)NN(C(=O)c2cc(C)cc(Br)c2)C(C)(C)C)c1C [RG-101353]	3583	3835	1.168	0.266	1347	718	1.163	0.675
CCc1ccc(C(=O)NN(C(=O)c2ccccc2[N+](=O)[O-])C(C)(C)C)cc1 [RG-101013]	927	988	0.606	2.14	1084	406	0.539	2.26
Cc1cc(C)cc(C(=O)N(NC(=O)c2ccc3c(c2Br)OCCO3)C(C)(C)C)c1 [RG-101340]	1624	1549	0.964	0.24	675	879	0.364	0.106
COc1cc(C)ccc1C(=O)N(NC(=O)c1cccc(OC)c1C)C(C)(C)C [RG-100769]	1595	1556	0.735	0.196	1014	386	0.685	0.337
C=Cc1c(OC)cccc1C(=O)NN(C(=O)c1cc(C)cc(C)c1)C(C)(C)C [RG-102021]	–	2951	–	–	4081	–	1.136	4.04
CCc1ccc(C(=O)NN(C(=O)c2ccccc2CC)C(C)(C)C)cc1 [RG-102592]	7	1265	0.798	7.77	194	909	0.684	4.92
COc1cccc(C(=O)NN(C(=O)c2cc(C)ccc2Cl)C(C)(C)C)c1Cl [RG-101248]	146	1033	0.790	5.04	–	415	–	–
COc1cc(C(=O)NN(C(=O)c2cc(C)cc(C)c2)C(C)(C)C)ccc1C [RG-101585]	154	1495	0.893	5.06	–	1015	–	–
COc1ccc(C(=O)NN(C(=O)c2ccc(F)cc2Cl)C(C)(C)C)cc1 [RG-101057]	30	1008	0.648	6.62	33	842	0.569	4.97
Cc1cc(C)cc(C(=O)N(NC(=O)c2cccc(OC(F)(F)F)c2C)C(C)(C)C)c1 [RG-101692]	1798	591	1.008	0.788	4180	170	1.004	0.728
CC(C)(C)N(NC(=O)c1c(F)cccc1F)C(=O)c1cc(Cl)cc(Cl)c1 [RG-100801]	1341	1244	0.936	2.08	–	16	–	–
CCc1c(C(=O)NN(C(=O)c2cccc(C)c2)C(C)(C)C)ccc2c1OCCO2 [RG-101036]	1721	1459	0.724	0.177	4582	908	0.545	0.223
CCc1ccc(C(=O)NN(C(=O)c2cc(C)cc(C)c2)C(C)C(C)(C)C)cc1 (stereo not shown) [RG-103451]	3326	3865	0.884	0.314	576	661	0.742	0.208
CCc1c(OC)cccc1C(=O)NN(C(=O)c1ccc(Cl)cc1OC)C(C)(C)C [RG-101218]	1097	1223	0.645	0.128	–	1983	–	–
CC(=O)c1cccc(C(=O)NN(C(=O)c2cc(C)cc(C)c2)C(C)(C)C)c1C [RG-100814]	2441	2165	1.157	1.5	423	1151	0.843	37.9
CC(C)(C)N(NC(=O)c1ccc2c(c1)OCO2)C(=O)c1ccc(F)cc1Cl [RG-101048]	19	1453	0.708	8.42	–	701	–	–
Cc1cc(C)cc(C(=O)N(NC(=O)c2ccc(CC#N)cc2)C(C)(C)C)c1 [RG-100875]	34	1592	1.004	8.92	23	1143	0.853	4.02
